Measured values published in ChEMBL document CHEMBL3638567, “2-heteroaryl carboxamides” (2015).
pKi: −log10 of the molar value.

Target: Neuronal acetylcholine receptor subunit alpha-7 (Rattus norvegicus, UniProt Q05941)
Test: Binding Assay: The [3H]-methyllycaconitine binding assay is a modification of the method described by Davies et al. in Neuropharmacol. 1999, 38, 679-690.Rat brain tissue (hippocampus or whole brain) is homogenized in homogenization buffer (10% w/v, 0.32 M sucrose, 1 mM EDTA, 0.1 mM phenylmethylsulphonyl fluoride (PMSF), 0.01% (w/v) NaN3, pH 7.4, 4 C.) at 600 rpm in a glass homogenizer. The homogenate is centrifuged (1000xg, 4 C., 10 min) and the supernatant is removed. The pellet is resuspended (20% w/v) and the suspension is centrifuged (1000xg, 4 C., 10 min). The two supernatants are combined and centrifuged (15 000xg, 4 C., 30 min). The pellet obtained in this way is referred to as the P2 fraction.The P2 pellet is suspended in binding buffer (50 mM Tris-HCl, 1 mM MgCl2, 120 mM NaCl, 5 mM KCl, 2 mM CaCl2, pH 7.4), and the suspension is centrifuged (15 000xg, 4 C., 30 min), twice.The residue is resuspended in binding buffer and incubated in a volume of 250 ul.
Assay type: tissue-based

Neuronal acetylcholine receptor subunit alpha-7, sequence (Q05941 whole entry): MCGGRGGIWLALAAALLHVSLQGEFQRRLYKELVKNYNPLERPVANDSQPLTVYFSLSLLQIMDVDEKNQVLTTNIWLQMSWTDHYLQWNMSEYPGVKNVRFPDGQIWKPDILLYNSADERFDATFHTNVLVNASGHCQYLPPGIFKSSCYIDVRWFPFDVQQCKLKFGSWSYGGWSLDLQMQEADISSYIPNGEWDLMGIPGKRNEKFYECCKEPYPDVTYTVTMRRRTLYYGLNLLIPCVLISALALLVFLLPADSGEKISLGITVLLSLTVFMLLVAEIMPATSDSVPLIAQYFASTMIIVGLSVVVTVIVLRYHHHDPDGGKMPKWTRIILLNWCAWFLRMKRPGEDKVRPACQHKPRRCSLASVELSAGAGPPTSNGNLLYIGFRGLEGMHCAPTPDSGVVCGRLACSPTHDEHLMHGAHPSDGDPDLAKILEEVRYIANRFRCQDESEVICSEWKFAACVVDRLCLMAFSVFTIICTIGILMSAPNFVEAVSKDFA

Row | SMILES | pKi
1 | O=C(NC1CC1)c1cccc(-c2cccc3cc(C(=O)N[C@H]4CN5CCC4CC5)oc23)c1 | 8.52
2 | CN1CCN(C(=O)c2cccc(-c3cccc4cc(C(=O)N[C@H]5CN6CCC5CC6)oc34)c2)CC1 | 7.85
3 | CNC(=O)NCc1ccccc1-c1cccc2cc(C(=O)N[C@H]3CN4CCC3CC4)sc12 | 8.48
